Several values for one entry are separate records, joined by “and”; a condition that tells them apart may be missing. Equal entries are not always repeated. Entries after “also recorded” stand apart in the source; their conditions may differ.
Columns and labels:
[1] = system: ALK-driven refractory or relapsed neuroblastoma; assay: Anti-tumor response: best overall response by NANT response criteria version 2.0; format: in vivo, human
Description: (§1) Patients underwent disease staging at baseline, after courses 2 and 4 and then every four courses thereafter. The primary endpoint for response analysis is the BOR, defined as the best response observed before progression or start of another therapy. […] Response was graded according to the NANT response criteria version 2.0 (ref. [26]), modified from the International Neuroblastoma Response Criteria (INRC)[48]. NANT response criteria use three components for assessment of overall response: soft tissue response assessed by anatomical imaging and avidity on MIBG or FDG-PET; bone response assessed by uptake in bone by MIBG or bone involvement on FDG-PET; and bone marrow response assessed by morphology on bilateral aspirates and biopsies. Each response component (soft tissue, bone and bone marrow) are graded as CR, PR, SD and PD. Overall response grading is defined as: CR, if a response of CR in all components that are involved at baseline; PR, if a response of PR or better in all involved components; MR, if a response of PR or better but with at least one involved component as SD and no PD in all involved components; SD, if a response of SD in all involved components; and PD, if a response of PD in at least one involved component. The overall response definitions are identical to overall responses (CR, PR, SD and PD) as defined by the INRC. Response assessment is initially performed by sites and reviewed against source documents by NANT operations. Additional blinded central review of all radiological or pathological data was conducted for patients with overall PR or better and, in addition, radiologic pathological data of all involved sites for patients with MR to assign the final BOR on this study. Response by MIBG was determined using the Curie criteria. RR was determined as the proportion of patients with BOR of CR and PR in each cohort. Based on an international consensus by the National Cancer Institute Clinical Trials Planning Committee to refine tumor site eligibility criteria and evaluation of disease response for early-phase clinical trials in children with high-risk recurrent, refractory and progressive neuroblastoma, we also performed an ad hoc analysis to determine a modified RR that includes the proportion of patients with BOR of CR, PR and MR.

[2] = system: ALK-driven refractory or relapsed neuroblastoma; assay: Soft tissue response by RECIST; format: in vivo, human
Description: as §1, with “Based on an international consensus by the National Cancer Institute Clinical Trials Planning Committee to refine tumor site eligibility criteria and evaluation of disease response for early-phase clinical trials in children with high-risk recurrent, refractory and progressive neuroblastoma, we also performed an ad hoc analysis to determine a modified RR that includes the proportion of patients with BOR of CR, PR and MR.” left out

[3] = system: neuroblastoma-derived xenografts harboring F1174L, F1245C or R1275Q ALK mutations; conditions: cited from earlier work
[4] = Cohort A1, Dose Level 1, individual patient
[5] = Cohort A1, Dose Level 3, individual patient
[6] = Cohort A1, Dose Level 4, individual patient
[7] = Cohort A2, Dose Level 3A, individual patient
[8] = Cohort A2, Dose Level 4A, individual patient
[9] = Cohort B2 (with topotecan/cyclophosphamide), DL4
[10] = Cohort B2 (with topotecan/cyclophosphamide), DL5
[11] = Cohort B2, Dose Level 4B, individual patient
[12] = Cohort B2, Dose Level 5B, individual patient

With `C[C@H]1Oc2cc(cnc2N)-c2c(nn(C)c2C#N)CN(C)C(=O)c2ccc(F)cc21` [Lorlatinib, (10R)-7-amino-12-fluoro-2,10,16-trimethyl-15-oxo-10,15,16,17-tetrahydro-2H-8,4-(metheno)pyrazolo[4,3-h][2,5,11]-benzoxadiazacyclotetradecine-3-carbonitrile] the “patients with PD before or by the end of course 2” value ([1]; <18 years, MYCN-amplified/ALK-mutated neuroblastoma (6/7), cohort A1) was 86%, the “CR, patients” value ([1]; Cohort A1 (N= 23), Total) was 1 and the “MR, patients” value ([1]; Cohort A1 (N= 23), Total) was 4. For the same molecule, the “PD, patients” value ([1]; Cohort A1 (N= 23), Total) was 12, the “PR, patients” value ([1]; Cohort A1 (N= 23), Total) was 2 and the “CR+PR Rate” value ([1]; Cohort A1, DL1) was 1/3. For the same molecule, the “CR+PR+MR Rate” value ([1]; Cohort A1, DL1) was 2/3, the “CR, patients” value ([1]; Cohort A1, DL1) was 0 and the “MR, patients” value ([1]; Cohort A1, DL1) was 1. For the same molecule, the “PD, patients” value ([1]; Cohort A1, DL1) was 1, the “PR, patients” value ([1]; Cohort A1, DL1) was 1 and the “CR+PR Rate” value ([1]; Cohort A1, DL2) was 0/2. For the same molecule, the “CR+PR+MR Rate” value ([1]; Cohort A1, DL2) was 0/2, the “CR, patients” value ([1]; Cohort A1, DL2) was 0 and the “MR, patients” value ([1]; Cohort A1, DL2) was 0. For the same molecule, the “PD, patients” value ([1]; Cohort A1, DL2) was 2, the “PR, patients” value ([1]; Cohort A1, DL2) was 0 and the “CR+PR Rate” value ([1]; Cohort A1, DL3) was 0/3. The “CR+PR+MR Rate” value ([1]; Cohort A1, DL3) was 0/3, the “CR, patients” value ([1]; Cohort A1, DL3) was 0 and the “MR, patients” value ([1]; Cohort A1, DL3) was 0. The “PD, patients” value ([1]; Cohort A1, DL3) was 2, the “PR, patients” value ([1]; Cohort A1, DL3) was 0 and the “CR+PR Rate” value ([1]; Cohort A1, DL4) was 0/9. The “CR+PR+MR Rate” value ([1]; Cohort A1, DL4) was 2/9, the “CR, patients” value ([1]; Cohort A1, DL4) was 0 and the “MR, patients” value ([1]; Cohort A1, DL4) was 2. For the same molecule, the “PD, patients” value ([1]; Cohort A1, DL4) was 5, the “PR, patients” value ([1]; Cohort A1, DL4) was 0 and the “CR+PR Rate” value ([1]; Cohort A1, DL5) was 2/6. For the same molecule, the “CR+PR+MR Rate” value ([1]; Cohort A1, DL5) was 3/6, the “CR, patients” value ([1]; Cohort A1, DL5) was 1 and the “MR, patients” value ([1]; Cohort A1, DL5) was 1. The “PD, patients” value ([1]; Cohort A1, DL5) was 2, the “PR, patients” value ([1]; Cohort A1, DL5) was 1 and the “Course Best overall response is achieved” value [1, 4] was 14 and 2. For the same molecule, the “Patient status at end of course” value [1, 4] was “Off therapy”, the “Course Best overall response is achieved” value ([1]; Cohort A1, Dose Level 2, individual patient) was 2 and the “Course Best overall response is achieved” value [1, 5] was 2. For the same molecule, the “Patient status at end of course” value [1, 5] was “Off therapy”, the “Course Best overall response is achieved” value [1, 6] was 2 and the “Patient status at end of course” value [1, 6] was “Off therapy”. The “Course Best overall response is achieved” value ([1]; Cohort A1, Dose Level 5, individual patient) was 4 and 6 and 2, the “CR, patients” value ([1]; Cohort A2 (N=15), Total) was 4 and the “MR, patients” value ([1]; Cohort A2 (N=15), Total) was 3. The “PD, patients” value ([1]; Cohort A2 (N=15), Total) was 1, the “PR, patients” value ([1]; Cohort A2 (N=15), Total) was 3 and the “CR+PR Rate” value ([1]; Cohort A2, 100 mg) was 2/5. The “CR+PR+MR Rate” value ([1]; Cohort A2, 100 mg) was 3/5, the “CR, patients” value ([1]; Cohort A2, 100 mg) was 0 and the “MR, patients” value ([1]; Cohort A2, 100 mg) was 1. For the same molecule, the “PD, patients” value ([1]; Cohort A2, 100 mg) was 1, the “PR, patients” value ([1]; Cohort A2, 100 mg) was 2 and the “CR+PR Rate” value ([1]; Cohort A2, 150 mg) was 5/10. For the same molecule, the “CR+PR+MR Rate” value ([1]; Cohort A2, 150 mg) was 7/10, the “CR, patients” value ([1]; Cohort A2, 150 mg) was 4 and the “MR, patients” value ([1]; Cohort A2, 150 mg) was 2. For the same molecule, the “PD, patients” value ([1]; Cohort A2, 150 mg) was 0, the “PR, patients” value ([1]; Cohort A2, 150 mg) was 1 and the “Course Best overall response is achieved” value [1, 7] was 6 and 2. The “Patient status at end of course” value [1, 7] was “Off therapy”, the “Course Best overall response is achieved” value [1, 8] was 4 and 10 and 6 and 2 and 1 and the “Patient status at end of course” value [1, 8] was “Ongoing therapy; also recorded: Off therapy”. The “CR, patients” value ([1]; Cohort B2 (N=8), Total) was 1, the “MR, patients” value ([1]; Cohort B2 (N=8), Total) was 3 and the “PD, patients” value ([1]; Cohort B2 (N=8), Total) was 3. For the same molecule, the “PR, patients” value ([1]; Cohort B2 (N=8), Total) was 1, the “CR+PR Rate” value [1, 9] was 1/2 and the “CR+PR+MR Rate” value [1, 9] was 1/2. For the same molecule, the “CR, patients” value [1, 9] was 1, the “MR, patients” value [1, 9] was 0 and the “PD, patients” value [1, 9] was 1. The “PR, patients” value [1, 9] was 0, the “CR+PR Rate” value [1, 10] was 1/6 and the “CR+PR+MR Rate” value [1, 10] was 4/6. For the same molecule, the “CR, patients” value [1, 10] was 0, the “MR, patients” value [1, 10] was 3 and the “PD, patients” value [1, 10] was 2. For the same molecule, the “PR, patients” value [1, 10] was 1, the “Course Best overall response is achieved” value [1, 11] was 2 and the “Patient status at end of course” value [1, 11] was “Off therapy”. For the same molecule, the “Course Best overall response is achieved” value [1, 12] was 2, the “Patient status at end of course” value [1, 12] was “Ongoing therapy; also recorded: Off therapy” and the “RR (BOR of CR or PR)” value ([1]; cohort A1 (3/23)) was 13%. For the same molecule, the “median time to BOR” value ([1]; cohort A1, 11 of 23 patients with SD or better) was “two”, the “patients pre-treated with ALK TKI achieving MR or SD” value ([1]; cohort A1, four of nine) was 44% and the “modified RR (BOR of CR/PR/MR)” value ([1]; cohort A1, single agent, <18 years) was 30%. The “RR (BOR of CR/PR)” value ([1]; cohort A2 (7/15)) was 47%, the “median time to BOR” value ([1]; cohort A2, 14 of 15 patients with SD or better) was “four” and the “modified RR (BOR of CR/PR/MR)” value ([1]; cohort A2, single agent, ≥18 years) was 67%. For the same molecule, the “responses in patients with prior ALK TKI” value ([1]; cohort A2, three of five) was 60%, the “median time to BOR of SD or better” value ([1]; cohort B2) was “two” and the “RR (BOR of CR/PR)” value ([1]; cohort B2 (2/8), with topotecan/cyclophosphamide) was 25%. The “patients with MYCN amplification achieving a PR” value ([1]; cohort B2, lorlatinib plus topotecan/cyclophosphamide) was “two of three”, the “modified RR (BOR of CR/PR/MR)” value ([1]; cohort B2, with topotecan/cyclophosphamide, <18 years) was 63% and 62% and the “Course when BOR obtained” value ([1]; individual patients with prior ALK inhibitor, Cohort A1, Dose Level 1) was 2. The “Course when BOR obtained” value ([1]; patients with prior ALK inhibitor, Cohort A1, Dose Level 1) was 2, the “Course when BOR obtained” value ([1]; patients with prior ALK inhibitor, Cohort A1, Dose Level 2) was 2 and the “Course when BOR obtained” value ([1]; patients with prior ALK inhibitor, Cohort A1, Dose Level 3) was 2. The “Course when BOR obtained” value ([1]; patients with prior ALK inhibitor, Cohort A1, Dose Level 4) was 2, the “Course when BOR obtained” value ([1]; patients with prior ALK inhibitor, Cohort A1, Dose Level 5) was 2 and the “Course when BOR obtained” value ([1]; patients with prior ALK inhibitor, Cohort A2, Dose Level 3A) was 2. For the same molecule, the “Course when BOR obtained” value ([1]; patients with prior ALK inhibitor, Cohort B2, Dose Level 4B) was 2, the “Course when BOR obtained” value ([1]; patients with prior ALK inhibitor, Cohort B2, Dose Level 5B) was 2 and 1 and the “Course when BOR obtained” value ([1]; prior ALK inhibitor, Cohort A1, Dose Level 2) was 2. For the same molecule, the “Course when BOR obtained” value ([1]; prior ALK inhibitor, Cohort A1, Dose Level 3) was 2, the “Course when BOR obtained” value ([1]; prior ALK inhibitor, Cohort A1, Dose Level 4) was 2 and the “Course when BOR obtained” value ([1]; prior ALK inhibitor, Cohort A1, Dose Level 5) was 2. For the same molecule, the “Course when BOR obtained” value ([1]; prior ALK inhibitor, Cohort B2, Dose Level 4) was 2, the “Course when BOR obtained” value ([1]; prior ALK inhibitor, Cohort B2, Dose Level 5) was 2 and 1 and the “Soft tissue % change from baseline” value ([2]; Cohort A1, individual patient) was 1% and -3.77% and -4% and -7% and -17% and -21% and -29% and -36% and -41% and -50% and -63% and -70% and -100% and 200% and 121% and 100% and 61% and 20% and 6%. For the same molecule, the “Soft tissue % change from baseline” value ([2]; Cohort A2, individual patient) was 1% and -11% and -23% and -27% and -28% and -30% and -41% and -68%, the “Soft tissue % change from baseline” value ([2]; Cohort B2, individual patient) was 1% and -9% and -12% and -45% and the “anti-tumor doses lower than crizotinib” value ([3]; ALK-driven neuroblastoma pre-clinical models in vivo) was 10–30 fold. The “effect on xenograft tumors” value ([3]; crizotinib-resistant and sensitive xenografts) was “complete tumor regression”.

— paper PMC10202811 (Nature Medicine, 2023)
